# Values of other authors, collected in PMC4877185 (Molecular imaging and biology : MIB : the official …, 2016).
# How the values were obtained:
# GLP-1R [1] = conditions: read-out: cAMP EC50; unlabeled conjugates, GLP-1R agonist
# GLP-1R [2] = conditions: greater affinity than truncated antagonist exendin-(9–39)-amide
EC50 (GLP-1R [1]),Substance,Binding affinity for GLP-1R relative to exendin-(9–39)-amide (GLP-1R [2])
0.027 nM,DO3A-VS-Cys^40-exendin-4,–
–,Exendin-4,~10 fold
